IC50 or EC50 (antagonist or agonist mode, not stated per compound) data for 20 compounds are collected here from patent US11981677B2, “Further substituted triazolo quinoxaline derivatives” (Grünenthal GmbH, priority 2018, dated 2024).

For this assay, the target named is T1, Glucocorticoid Receptor (Homo sapiens, UniProt P04150).
T1 construct: expressed in transfected cells
T1 sequence (P04150 524-758 limits assumed): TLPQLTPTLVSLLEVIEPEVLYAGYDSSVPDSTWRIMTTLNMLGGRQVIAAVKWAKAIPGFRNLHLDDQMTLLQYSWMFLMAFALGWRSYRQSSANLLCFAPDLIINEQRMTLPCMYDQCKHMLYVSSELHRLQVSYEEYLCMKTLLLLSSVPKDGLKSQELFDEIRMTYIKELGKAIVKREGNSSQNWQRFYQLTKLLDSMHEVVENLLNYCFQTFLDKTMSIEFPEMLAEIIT
Description: Agonistic mode of action on the glucocorticoid receptor (CHO-Gal4/GR luciferase reporter cell line). Format: cell-based. To be noted: CHO-Gal4/GR luciferase reporter cells; observed in the agonistic assay or the antagonistic assay (mode not given); read-out: IC50 or EC50 range. The source says: Potential selective glucocorticoid receptor modulators of this intervention can be tested for modulation of the activity of the glucocorticoid receptor using cell-based assays. These assays involve a Chinese hamster ovary (CHO) cell line which contains fragments of the glucocorticoid receptor as well as fusion proteins. The glucocorticoid receptor fragments used are capable of binding the ligand (e.g. beclomethasone) to identify molecules that compete for binding with glucocorticoid receptor ligands. In more detail, the glucocorticoid receptor ligand binding domain is fused to the DNA binding domain (DBD) of the transcriptionfactor GAL4 (GAL4 DBD-GR) and is stably integrated into a CHO cell line containing a GAL4-UAS-Luciferase reporter construct. […] After cell lysis the luminescence that is produced by luciferase after addition of the substrate is detected and EC50 or IC50 values can be calculated. Engagement of molecules which induce gene expression via glucocortocoid receptor binding to the DNA leads to expression of the luciferase gene under the control of the fusion protein GAL4 DBD-GR and therefore to a dose-dependent increase of the luminescence signal. Binding of molecules which repress beclomethasone-induced gene expression of the luciferase gene under the control of the fusion protein GAL4 DBD-GR leads to a dose-dependent reduction of the luminescence signal.
The reporter cell line CHO-Gal4/GR consisted of a chinese hamster ovary (CHO) cell line (Leibniz Institute DSMZ—German Collection of Microorganisms and Cell Cultures GmbH: ACC-110) containing a firefly luciferase gene under the control of the GR ligand binding domain fused to the DNA binding domain (DBD) of GAL4 (GAL4 DBD-GR) stably integrated into CHO cells. This cell line was established by stable transfection of CHO cells with a GAL4-UAS-Luciferase reporter construct. In a subsequent step the ligand binding domain of the GR cloned into pIRES2-EGFP-GAL4 containing the DNA binding domain of GAL4 from pFA-AT2 was transfected. This fusion construct activated firefly luciferase expression under the control of a multimerized GAL4 upstream activation sequence (UAS). The signal of the emitted luminescence was recorded by the FLIPR^TETRA. This allowed for specific detection of ligand-induced activation of the GR and therefore for the identification of compounds with agonistic properties. The GAL4/UAS reporter was premixed with a vector that constitutively expressed Renilla luciferase, which served as an internal positive control for transfection efficiency.
The complete culture medium for the assay was: • DMEM F-12 (1:1) MIXTURE (LONZA cat. No: BE04-687F/U1) 500 mL • 5 mL of 100 mM Sodium Pyruvate (LONZA cat. No: BE12-115E) • 25 mL of 7.5% Sodium Bicarbonate (LONZA cat. No BE17-613E) • 6.5 mL of 1 M Hepes (LONZA cat. No: BE17-737E) • 5 mL of 100× Penicillin/Streptomycin (LONZA cat. No DE17-602E) • 50 mL of Fetal Bovine Serum (Euroclone cat. No ECS 0180L) • 0.25 mL of 10 mg/mL Puromycin (InvivoGen cat.: ant-pr-1) • 0.5 mL of 100 mg/mL Zeocin (InvivoGen cat.: ant-zn-1)
Cryo-preserved CHO-Gal4/GR cells were suspended in complete medium and 5000 cells/25 μl/well were seeded into the wells of 384-well polystyrene assay plates (Thermo Scientific, cat. #4332) and cultured at 37° C., 5% CO2 and 95% humidity. After 24 hours growth medium was carefully removed and replaced by 30111 Opti-MEM (GIBCO, cat. #31985062) as assay buffer. To test the compounds an 8-point half-log compound dilution curve was generated in 100% DMSO starting from a 2 mM stock and compounds were then diluted 1:50 in Opti-MEM. 10111 of compounds were then added to the wells containing 30 μl Opti-MEM resulting in a final assay concentration range from 10 μM to 0.003 μM in 0.5% DMSO. Compounds were tested at 8 concentrations in quadruplicate data points. […] Finally, cells were lysed with 20 μl of Triton/Luciferin solution and the signal of the emitted luminescence was recorded at the FLIPR^TETRA for 2 minutes. […]
Background: A reporter such as luciferase makes a cellular process visible.

Consider `COc1c(-c2cc(F)cc3c2ccn3CC(F)F)cc(F)c2c1-n1c(C)nnc1C(C)(C)N2` [Example 58, 8-(1-(2,2-difluoroethyl)-6-fluoro-1H-indol-4-yl)-6-fluoro-9-methoxy-1,4,4-trimethyl-4,5-dihydro-[1,2,4]triazolo[4,3-a]quinoxaline], for which the IC50 or EC50 (antagonist or agonist mode, not stated per compound) is 100 to 1000 nM. As for `Cc1c(-c2cc(Cl)cc3[nH]ccc23)cc(F)c2c1-n1c(C)nnc1C(C)(C)N2` [Example 506, 8-(6-Chloro-1H-indol-4-yl)-6-fluoro-1,4,4,9-tetramethyl-5H-[1,2,4]triazolo[4,3-a]quinoxaline], the figure is 100 to 1000 nM. As for `Cc1c(-c2cc(F)cc3c2ccn3S(C)(=O)=O)cc(F)c2c1-n1c(C3CC3)nnc1C(C)(C)N2` [Example 63, 1-Cyclopropyl-6-fluoro-8-(6-fluoro-1-methylsulfonyl-1H-indol-4-yl)-4,4,9-trimethyl-5H-[1,2,4]triazolo[4,3-a]quinoxaline], the figure is 100 to 1000 nM; as for `Cc1c(-c2cccc3c2cnn3S(C)(=O)=O)cc(Cl)c2c1-n1c(C)nnc1C(C)(C)N2` [Example 458, 6-Chloro-1,4,4,9-tetramethyl-8-(1-methylsulfonyl-1H-indazol-4-yl)-5H-[1,2,4]triazolo[4,3-a]quinoxaline], 100 to 1000 nM. As for `CCc1c(-c2cccc3c2ccn3S(C)(=O)=O)cc(F)c2c1-n1c(C)nnc1C(C)(C)N2` [Example 49, 9-ethyl-6-fluoro-1,4,4-trimethyl-8-(1-(methylsulfonyl)-1H-indol-4-yl)-4,5-dihydro-[1,2,4]triazolo[4,3-a]quinoxaline], the figure is 100 to 1000 nM; as for `COc1c(-c2cc(C)cc3c2ccn3S(C)(=O)=O)cc(F)c2c1-n1c(C)nnc1C(C)(C)N2` [Example 476, 6-Fluoro-9-methoxy-1,4,4-trimethyl-8-(6-methyl-1-methylsulfonyl-1H-indol-4-yl)-5H-[1,2,4]triazolo[4,3-a]quinoxaline], 100 to 1000 nM. As to `Cc1nnc2n1-c1c(c(F)cc(-c3cccc4c3ccn4S(C)(=O)=O)c1C1CC1)NC2(C)C` [Example 474, 9-Cyclopropyl-6-fluoro-1,4,4-trimethyl-8-(1-methylsulfonyl-1H-indol-4-yl)-5H-[1,2,4]triazolo[4,3-a]quinoxaline], the IC50 or EC50 (antagonist or agonist mode, not stated per compound) was 100 to 1000 nM. Under `Cc1c(-c2cccc3c2cnn3S(C)(=O)=O)c(Cl)c(F)c2c1-n1c(C)nnc1C(C)(C)N2` [Example 527, 7-Chloro-6-fluoro-1,4,4,9-tetramethyl-8-(1-methylsulfonyl-1H-indazol-4-yl)-5H-[1,2,4]triazolo[4,3-a]quinoxaline] stands 100 to 1000 nM; under `CCc1nnc2n1-c1c(C)c(-c3cccc4c3ccn4S(C)(=O)=O)cc(F)c1NC2(C)C` [Example 308, 1-Ethyl-6-fluoro-4,4,9-trimethyl-8-(1-methylsulfonyl-1H-indol-4-yl)-5H-[1,2,4]triazolo[4,3-a]quinoxaline], < 100 nM. As for `Cc1c(-c2ccc(C#N)c3[nH]ccc23)c(F)c(F)c2c1-n1c(C)nnc1C(C)(C)N2` [Example 520, 4-(6,7-difluoro-1,4,4,9-tetramethyl-4,5-dihydro-[1,2,4]triazolo[4,3-a]quinoxalin-8-yl)-1H-indole-7-carbonitrile], the figure is 100 to 1000 nM. As for `CCS(=O)(=O)n1ccc2c(-c3cc(F)c4c(c3NC)-n3c(C)nnc3C(C)(C)N4)cc(F)cc21` [Example 479, [8-[1-(Ethylsulfonyl)-6-fluoro-1H-indol-4-yl]-6-fluoro-1,4,4-trimethyl-5H-[1,2,4]triazolo[4,3-a]quinoxalin-9-yl]-methyl-amine], the figure is 100 to 1000 nM; as for `CCS(=O)(=O)n1ccc2c(-c3cc(F)c4c(c3C)-n3c(C)nnc3C(C)(C)N4)cccc21` [Example 350, 8-[1-(Ethylsulfonyl)-1H-indol-4-yl]-6-fluoro-1,4,4,9-tetramethyl-5H-[1,2,4]triazolo[4,3-a]quinoxaline], < 100 nM. `Cc1nnc2n1-c1c(c(F)cc(-c3cc(F)cc4c3cnn4S(C)(=O)=O)c1C1CC1)NC2(C)C` [Example 467, 9-Cyclopropyl-6-fluoro-8-(6-fluoro-1-methylsulfonyl-1H-indazol-4-yl)-1,4,4-trimethyl-5H-[1,2,4]triazolo[4,3-a]quinoxaline]: the IC50 or EC50 (antagonist or agonist mode, not stated per compound) lay in the range of 100 to 1000 nM. Take `CNc1c(-c2cccc3c2ccn3C2CC2)cc(F)c2c1-n1c(C)nnc1C(C)(C)N2` [Example 481, 8-(1-cyclopropyl-1H-indol-4-yl)-6-fluoro-N,1,4,4-tetramethyl-4,5-dihydro-[1,2,4]triazolo[4,3-a]quinoxalin-9-amine]: the IC50 or EC50 (antagonist or agonist mode, not stated per compound) lay within 100 to 1000 nM. As for `Cc1c(-c2cccc3[nH]ccc23)cc(F)c2c1-n1c(C)nnc1C(C)(C)N2` [Example 468, 6-Fluoro-8-(1H-indol-4-yl)-1,4,4,9-tetramethyl-5H-[1,2,4]triazolo[4,3-a]quinoxaline], the figure is < 100 nM; as for `Cc1c(-c2cccc3c2cnn3S(C)(=O)=O)c(F)c(Cl)c2c1-n1c(C)nnc1C(C)(C)N2` [Example 509, 6-Chloro-7-fluoro-1,4,4,9-tetramethyl-8-(1-methylsulfonyl-1H-indazol-4-yl)-5H-[1,2,4]triazolo[4,3-a]quinoxaline], 100 to 1000 nM; as for `Cc1c(-c2cccc3c2ccn3S(C)(=O)=O)cc(Cl)c2c1-n1c(C)nnc1C(C)(C)N2` [Example 456, 6-Chloro-1,4,4,9-tetramethyl-8-(1-methylsulfonyl-1H-indol-4-yl)-5H-[1,2,4]triazolo[4,3-a]quinoxaline], < 100 nM. For `Cc1nnc2n1-c1c(c(F)cc(-c3cc(F)cc4c3ccn4S(C)(=O)=O)c1C1CC1)NC2(C)C` [Example 471, 9-Cyclopropyl-6-fluoro-8-(6-fluoro-1-methylsulfonyl-1H-indol-4-yl)-1,4,4-trimethyl-5H-[1,2,4]triazolo[4,3-a]quinoxaline], the IC50 or EC50 (antagonist or agonist mode, not stated per compound) was < 100 nM. Consider `COc1c(-c2cccc3c2ccn3C)cc(F)c2c1-n1c(C)nnc1C(C)(C)N2` [Example 485, 6-Fluoro-9-methoxy-1,4,4-trimethyl-8-(1-methyl-1H-indol-4-yl)-5H-[1,2,4]triazolo[4,3-a]quinoxaline], for which the IC50 or EC50 (antagonist or agonist mode, not stated per compound) is 100 to 1000 nM. As for `COc1c(-c2cc(F)cc3[nH]ccc23)cc(F)c2c1-n1c(C)nnc1C(C)(C)N2` [Example 470, 6-Fluoro-8-(6-fluoro-1H-indol-4-yl)-9-methoxy-1,4,4-trimethyl-5H-[1,2,4]triazolo[4,3-a]quinoxaline], the figure is 100 to 1000 nM.
